Source: article PMC2990756, “Quantitative High-Throughput Screening Identifies 8-Hydroxyquinolines as Cell-Active Histone Demethylase Inhibitors” (PLoS ONE, 2010)
pIC50: −log10 of the molar value.

Assays:
JMJD2E (KDM4E) = biological target: T1, JMJD2E (KDM4E) (Homo sapiens, UniProt B2RXH2); experiment: qHTS fluorescence FDH-coupled JMJD2E demethylase assay; format: biochemical; settings: Table S1; unit not in table, from Figure 2; read-out: qHTS Data: jmjd2e IC50
T1 construct: The catalytic domain of human JMJD2E (residues 1–337); His6 (N); made in house; host or cells: E. coli
T1 sequence (B2RXH2 1-337): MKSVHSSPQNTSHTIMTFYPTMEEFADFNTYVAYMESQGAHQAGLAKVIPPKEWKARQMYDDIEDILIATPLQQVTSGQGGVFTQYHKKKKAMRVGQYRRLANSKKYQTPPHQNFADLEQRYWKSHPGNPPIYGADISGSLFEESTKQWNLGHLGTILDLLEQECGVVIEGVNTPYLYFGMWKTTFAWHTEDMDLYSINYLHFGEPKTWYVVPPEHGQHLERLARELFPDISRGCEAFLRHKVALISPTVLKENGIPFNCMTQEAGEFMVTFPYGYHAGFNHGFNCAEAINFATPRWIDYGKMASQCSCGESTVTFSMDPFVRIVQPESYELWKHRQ
Source text: The oxidation of formaldehyde is coupled to the reduction of NAD^+ to NADH, which is monitored by fluorescence spectroscopy. […] To this end, initial screening hits were filtered by a combination of cheminformatics (to exclude low-confidence inhibitors and autofluorescent false positives), counterscreening against the coupled-assay component formaldehyde dehydrogenase (FDH), and orthogonal direct detection of inhibition of demethylation by mass spectrometry ( Figure 1 ).
Reactions were initiated with 1 µL addition of peptide substrate solution containing final concentrations of 10 µM FAS, 50 µM 2OG, 0.25 U/mL FDH, 0.25 mM NAD^+, and 50 µM peptide substrate (ARK(me3)STGGK). A ViewLux imager (PerkinElmer, Waltham, MA) was used to measure NADH fluorescence (λex 340 nm, λem 450 nm) immediately after substrate addition and following 30 min incubation at room temperature. To record any systematic drifts in assay behavior (signal window and noise), assay plates containing no library compounds but only DMSO as a vehicle control were tested periodically (every ∼60 plates) throughout the screen.
Data were normalized to the basal response (0% activity) in the absence of enzyme and the maximal response (100% activity) in the absence of compound. Using the Hill equation, dose-response curves and IC50 values were automatically generated for each compound tested with software developed internally (www.ncgc.nih.gov/pub/openhts/curvefit/). […] The initial well fluorescence (first kinetic read) associated with each sample was stored in a database and used in the cheminformatics analysis to identify autofluorescent compounds interfering with the assay signal.

[1] = biological target: T2, formaldehyde dehydrogenase (FDH) (Pseudomonas putida, UniProt P46154); experiment: FDH coupling enzyme counterscreen; format: biochemical; settings: Table S1, FDH counterscreen; for pIC50: unit not in table, from Figure 2, read-out: qHTS Data: jmjd2e fdh IC50
T2 construct: purchased Sigma-Aldrich
Source text: Dimethylsulfoxide certified ACS grade (DMSO) was from Fisher, Inc. HEPES buffer was obtained from Gibco. […] Black solid-bottom 1,536-well assay plates were from Greiner Bio-One (Monroe, NC).

JMJD2E [2] = biological target: T3, JMJD2E (Homo sapiens, UniProt B2RXH2); experiment: MALDI-TOF MS demethylation assay, JMJD2E; settings: Table S1; for MALDI-TOF Data: Span: span of the fitted curve; for MALDI-TOF Data: Span / pIC50: 2 µM JMJD2E; for pIC50: read-out: MALDI-TOF Data: IC50, unit not in table, ~ values are poorly fitted
T3 sequence (B2RXH2 1-337): T1 sequence (B2RXH2 1-337)
Procedure: Initially, JMJD2, Fe(II), ascorbate and inhibitors were pre-incubated for 15 min prior to the addition of peptide and 2OG. The reaction was incubated for 30 min before 1∶1 quenching with methanol followed by addition of four volumes of 20 mM triammonium citrate. […] The diluted assay mixture (1 µL) from JMJD2 and PHD2 assays were mixed with 1 µL of α-cyano-4-hydroxycinnamic acid and 1 µL of FIH assay mixture was mixed with 1 µL of sinapinic acid matrix, and assessed by matrix-assisted laser desorption/ionization-time of flight (MALDI-TOF).

JMJD2E [3] = biological target: T3, JMJD2E; experiment: JMJD2E FDH-coupled assay under low and high iron conditions (iron chelation profile); format: biochemical; parameters: The catalytic domain of human JMJD2E (residues 1–337); His6 (N); made in house; host or cells: E. coli; settings: Table S1; for pIC50: unit not in table, from Figure 2
Procedure: The prioritized compounds were also evaluated in the screening assay using two different ferrous ion concentrations (termed high iron and low iron, respectively), in order to assess their propensity for iron chelation.
The ratio of IC50 values under high iron to low iron was calculated for each compound.

JMJD2A = biological target: T4, JMJD2A (Homo sapiens, UniProt O75164); experiment: Cellular demethylase assay: H3K9me3 immunofluorescence in HeLa cells overexpressing Flag-JMJD2A; settings: 1mM treatment, 24 hr
T4 sequence (O75164 1-1064): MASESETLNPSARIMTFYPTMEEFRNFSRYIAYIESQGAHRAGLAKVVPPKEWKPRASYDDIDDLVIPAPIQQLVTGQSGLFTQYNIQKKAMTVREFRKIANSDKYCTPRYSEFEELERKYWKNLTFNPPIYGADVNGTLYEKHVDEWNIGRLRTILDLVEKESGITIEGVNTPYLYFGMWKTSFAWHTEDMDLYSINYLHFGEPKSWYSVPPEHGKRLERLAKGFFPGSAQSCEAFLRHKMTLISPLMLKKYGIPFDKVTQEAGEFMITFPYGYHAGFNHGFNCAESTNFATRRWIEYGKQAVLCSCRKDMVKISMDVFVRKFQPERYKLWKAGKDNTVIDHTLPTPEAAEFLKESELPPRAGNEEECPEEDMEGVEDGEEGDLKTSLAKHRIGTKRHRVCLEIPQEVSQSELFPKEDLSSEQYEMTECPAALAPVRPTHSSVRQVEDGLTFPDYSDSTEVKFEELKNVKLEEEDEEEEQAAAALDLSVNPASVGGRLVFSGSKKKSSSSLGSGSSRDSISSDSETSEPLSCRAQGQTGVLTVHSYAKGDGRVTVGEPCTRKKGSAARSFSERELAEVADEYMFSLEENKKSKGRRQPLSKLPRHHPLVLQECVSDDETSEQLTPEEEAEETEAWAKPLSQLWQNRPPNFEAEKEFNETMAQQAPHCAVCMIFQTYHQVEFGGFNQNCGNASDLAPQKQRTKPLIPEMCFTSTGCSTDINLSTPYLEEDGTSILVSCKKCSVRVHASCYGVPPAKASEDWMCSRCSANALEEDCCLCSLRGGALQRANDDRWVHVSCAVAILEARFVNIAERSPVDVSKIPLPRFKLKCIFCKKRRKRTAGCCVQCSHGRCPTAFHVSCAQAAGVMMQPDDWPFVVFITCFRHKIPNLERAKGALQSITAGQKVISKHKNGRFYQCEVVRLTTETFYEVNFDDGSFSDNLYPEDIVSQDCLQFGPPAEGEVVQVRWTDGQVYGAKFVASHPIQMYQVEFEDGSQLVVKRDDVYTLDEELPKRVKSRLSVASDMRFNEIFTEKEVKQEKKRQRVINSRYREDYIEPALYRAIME
Source text: Therefore, in order to automate this process a series of images were collected for each treatment on a standard epifluorescence microscope ( Figure 5A ) and then submitted to CellProfiler Software for analysis [29]. CellProfiler was configured to analyze the images for DAPI signal, a DNA stain, enabling the program to identify the location of individual cells and create a boundary that delineates the volume of the nuclear compartment. As not all cells in a given field are transfected, the Flag-JMJD2A-expressing cells were identified by quantifying the immunofluoresence signal resulting from the Flag antibody staining and using the mock transfected cells as a baseline for the signal intensity of non-transfected cells. Once the transfected cells were identified, the nuclear H3K9me3 immunofluorescence signal for each cell was quantified by CellProfiler. The levels of H3K9me3 staining intensity were analyzed in the DMSO vehicle treated or inhibitor treated samples. As a control and a means of determining maximal possible inhibition of demethylase activity, cells expressing the JMJD2A H188A catalytically deficient mutant were also quantified in each experiment. […] For each treatment a minimum of 400 transfected cells was analyzed and the final values of inhibition were derived from inhibition experiments carried out on three separate days (biological triplicates). […]

[4] = high iron, head says 20 µM FAS, read-out: qHTS Data: jmjd2e fas20um IC50
[5] = low iron 2.5 µM FAS, read-out: qHTS Data: jmjd2e fas2.5um IC50

T2 sequence (P46154 whole entry): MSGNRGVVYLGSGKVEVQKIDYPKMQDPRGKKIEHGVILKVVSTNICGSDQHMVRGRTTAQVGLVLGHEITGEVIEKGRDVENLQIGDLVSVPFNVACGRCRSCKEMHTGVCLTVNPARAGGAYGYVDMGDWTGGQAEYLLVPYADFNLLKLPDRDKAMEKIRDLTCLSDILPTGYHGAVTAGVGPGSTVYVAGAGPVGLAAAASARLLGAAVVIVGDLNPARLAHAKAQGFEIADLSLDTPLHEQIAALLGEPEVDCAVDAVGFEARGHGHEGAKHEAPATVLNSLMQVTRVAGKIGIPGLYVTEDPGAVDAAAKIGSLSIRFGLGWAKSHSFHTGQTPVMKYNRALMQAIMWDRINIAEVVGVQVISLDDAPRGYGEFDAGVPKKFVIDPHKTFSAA

SMILES	pIC50 (JMJD2E (KDM4E))	qHTS Data: jmjd2e fdh CurveClass [1]	MALDI-TOF Data: Comments (JMJD2E [2])	pIC50 (JMJD2E [3]; [4])	pIC50 (JMJD2E [3]; [5])	JMJD2A demethylase activity remaining (JMJD2A)	pIC50 [1]	MALDI-TOF Data: Span (JMJD2E [2])	pIC50 (JMJD2E [2])	qHTS Data: jmjd2e fas20um CurveClass (JMJD2E [3]; high iron)	qHTS Data: jmjd2e fas2.5um Curve comment (JMJD2E [3]; low iron 2.5 µM FAS)
NC(Cc1cc(O)c(O)cc1O)C(=O)O (centres unmarked) [compound 50106437]	4.90	Inactive	solubility problems	5.65	5.10						
COC(=O)c1ccnc(C(=O)OC)c1 [dimethyl-2,4-PDCA]						approximately 35%					
CN(C)C1C(=O)C(C(N)=O)=C(O)[C@@]2(O)C(=O)C3=C(O)c4c(O)cccc4[C@@](C)(O)C3[C@H](O)C12 (some centres unmarked) [compound 50105558]	5.70	Poor quality curve		5.05	4.85		5.45	94.16	4.26		
CCOc1c(Cl)cc(CNc2ccc(N3CCCC3)cc2)cc1OC [compound 24795526]	5.05	Inactive		4.70	5.40			~ 11904		Poor quality curve	
Nc1ccc2nc3c(=O)n(CCc4ccccc4)c(=O)[nH]c3nc2c1 [compound 26726384]	5.75	Inactive		4.85	5.15			51.81	3.85		Poor quality curve
C(=N\Nc1nc(-c2ccccn2)nc2ccccc12)/c1ccccc1 [compound 26666061]	5.05	Inactive	solubility problems	5.00	4.65						
COc1ccc(/C=C/C(=O)NC(=S)NNC(=O)c2cnccn2)cc1 [compound 26725781]	5.10	Inactive		5.05	5.00			94.6	5.46		
CN1CCN(Cc2cc(COCc3ccccc3)c3cccnc3c2O)CC1 [compound 4248346]	5.05	Inactive		5.05	5.15			96.1	4.76		
O=c1cc(-c2ccccc2)oc2cc(O)c(O)c(O)c12 [compound 11114203]	6.05	Inactive		5.05	5.65			89.05	5.24		
O=c1c2ccccc2sn1-c1nccs1 [compound 24830882]	5.10	Inactive		5.40	5.10			82.19	4.99		
CCOc1cc(CNc2ccc(N3CCCCC3)cc2)cc(Br)c1OCC(=O)NC(C)(C)C [compound 22412645]	5.50	Inactive		5.50	4.40			~ 104.5			Inconclusive
Oc1ccc(NCc2ccccc2OCc2ccccc2F)cc1 [compound 17385881]	5.30	Poor quality curve		5.05	5.05		4.85	3.087			
C[C@@](Cc1ccc(O)c(O)c1)(NN)C(=O)O [compound 11113507]	5.45	Inactive		4.85	5.45			95.69	5.25		
Br.Oc1ccc(C2CNCCc3c2cc(O)c(O)c3Cl)cc1 (centres unmarked) [compound 50106351]	4.60	Inactive		5.10	5.20			93.35	5.08		
O=c1nc(N/N=C/c2ccccn2)cn[nH]1 [compound 24822918]	5.00	Inconclusive		4.80	5.15			97.61	~5.15		
COc1cccc(/C=N/NC(=O)CNC(=O)COc2cccc(C)c2)c1O [compound 26660958]	5.55	Inactive			5.35			89.52	4.99	Inconclusive	
COc1cccc(/C=N/NC(=O)CNC(=O)CCc2ccccc2)c1O [compound 26660959]	5.40	Inconclusive		4.90	5.15		4.40	88.08	5.07		
c1cnc2c(c1)ccc1cccnc12 [compound 11533040]	6.60	Inactive		5.40	5.00			93.01	~4.58		
C=CCn1c(SCC(=O)c2ccc(O)c(O)c2)nnc1-c1cccnc1 [compound 26671532]	5.45	Poor quality curve		5.90	5.10		4.85	91.73	4.93		
CCCCc1ccc(C(=O)O)nc1 [compound 11111188]	5.40	Inactive		5.80	5.45			~ 5848			
